Results: PubChem BioAssay (NCI)
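Abbreviation: GI50, concentration required for 50% inhibition of growth. TGI denotes the concentration required for complete inhibition of growth.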

Key:
Assay in all cases: NCI-60 cell line screen, 384-well format
UO-31 renal = test system: UO-31 renal
SNB-19 CNS = test system: SNB-19 CNS
NCI-H322M lung = test system: NCI-H322M lung
SR leukemia = test system: SR leukemia
SK-OV-3 ovarian = test system: SK-OV-3 ovarian
HCT-15 colon = test system: HCT-15 colon
CCRF-CEM leukemia = test system: CCRF-CEM leukemia
U251 glioblastoma = test system: U251 glioblastoma
HCT-116 colon = test system: HCT-116 colon
RPMI-8226 leukemia = test system: RPMI-8226 leukemia
EKVX NSCLC = test system: EKVX NSCLC
SK-MEL-5 melanoma = test system: SK-MEL-5 melanoma
SN12C renal = test system: SN12C renal
ACHN renal = test system: ACHN renal
BT-549 breast = test system: BT-549 breast
TK-10 renal = test system: TK-10 renal
MCF7 breast = test system: MCF7 breast
UACC-62 melanoma = test system: UACC-62 melanoma
K-562 leukemia = test system: K-562 leukemia
COLO 205 colon = test system: COLO 205 colon
HT29 colon = test system: HT29 colon
SW-620 colon = test system: SW-620 colon
HOP-62 NSCLC = test system: HOP-62 NSCLC
OVCAR-8 ovarian = test system: OVCAR-8 ovarian
M14 melanoma = test system: M14 melanoma
MDA-MB-435 melanoma = test system: MDA-MB-435 melanoma
SF-295 CNS = test system: SF-295 CNS
SNB-75 CNS = test system: SNB-75 CNS
OVCAR-4 ovarian = test system: OVCAR-4 ovarian
DU-145 prostate = test system: DU-145 prostate
SK-MEL-28 melanoma = test system: SK-MEL-28 melanoma
OVCAR-5 ovarian = test system: OVCAR-5 ovarian
HL-60(TB) leukemia = test system: HL-60(TB) leukemia
NCI-H460 NSCLC = test system: NCI-H460 NSCLC
IGROV1 ovarian = test system: IGROV1 ovarian
SK-MEL-2 melanoma = test system: SK-MEL-2 melanoma
MDA-MB-231 breast = test system: MDA-MB-231 breast
NCI-H23 lung = test system: NCI-H23 lung
HOP-92 NSCLC = test system: HOP-92 NSCLC
OVCAR-3 ovarian = test system: OVCAR-3 ovarian
MDA-MB-468 breast = test system: MDA-MB-468 breast
A549 NSCLC = test system: A549 NSCLC
A498 renal = test system: A498 renal
UACC-257 melanoma = test system: UACC-257 melanoma
MALME-3M melanoma = test system: MALME-3M melanoma
LOX IMVI melanoma = test system: LOX IMVI melanoma
SF-539 CNS = test system: SF-539 CNS

## CN1CC[C@@H](c2c(O)cc(O)c3c(=O)cc(-c4ccc(C(F)(F)F)cc4Cl)oc23)[C@@H]1CO
UO-31 renal
  GI50: 10.8 µM
  TGI: 23.2 µM
SNB-19 CNS
  GI50: 18.7 µM
  TGI: 33.9 µM
NCI-H322M lung
  GI50: 15.5 µM
  TGI: 29.2 µM
SR leukemia
  GI50: 1880 nM
  TGI: 5.32 µM
SK-OV-3 ovarian
  GI50: 16.3 µM
  TGI: 31.1 µM
HCT-15 colon
  GI50: 16.1 µM
  TGI: 30 µM
CCRF-CEM leukemia
  GI50: 13.8 µM
  TGI: 26.8 µM
U251 glioblastoma
  GI50: 15.5 µM
  TGI: 29 µM
HCT-116 colon
  GI50: 12.4 µM
  TGI: 25.4 µM
RPMI-8226 leukemia
  GI50: 7.71 µM
  TGI: 20.3 µM
EKVX NSCLC
  GI50: 13.8 µM
  TGI: 27.1 µM
SK-MEL-5 melanoma
  GI50: 16.7 µM
  TGI: 30.4 µM
SN12C renal
  GI50: 13.7 µM
  TGI: 26.7 µM
ACHN renal
  GI50: 12.6 µM
  TGI: 25.7 µM
BT-549 breast
  GI50: 14.6 µM
  TGI: 27.8 µM
TK-10 renal
  GI50: 14.2 µM
  TGI: 32.3 µM
MCF7 breast
  GI50: 14.7 µM
  TGI: 28.2 µM
UACC-62 melanoma
  GI50: 9.36 µM
  TGI: 21.7 µM
K-562 leukemia
  GI50: 13.9 µM
  TGI: 27.3 µM
COLO 205 colon
  GI50: 18.4 µM
  TGI: 32.6 µM
HT29 colon
  GI50: 17.6 µM
  TGI: 31.8 µM
SW-620 colon
  GI50: 17.5 µM
  TGI: 31.6 µM
HOP-62 NSCLC
  GI50: 14.4 µM
  TGI: 27.7 µM
OVCAR-8 ovarian
  GI50: 14.2 µM
  TGI: 27.4 µM
M14 melanoma
  GI50: 17 µM
  TGI: 30.8 µM
MDA-MB-435 melanoma
  GI50: 20.5 µM
  TGI: 34.9 µM
SF-295 CNS
  GI50: 16.7 µM
  TGI: 30.8 µM
SNB-75 CNS
  GI50: 12.6 µM
  TGI: 25.2 µM
OVCAR-4 ovarian
  GI50: 15.4 µM
  TGI: 29.6 µM
DU-145 prostate
  GI50: 15.5 µM
  TGI: 29.3 µM
SK-MEL-28 melanoma
  GI50: 13.5 µM
  TGI: 26.4 µM
OVCAR-5 ovarian
  GI50: 16.5 µM
  TGI: 37.3 µM
HL-60(TB) leukemia
  GI50: 9.56 µM
  TGI: 21.9 µM
NCI-H460 NSCLC
  GI50: 14.5 µM
  TGI: 28 µM
IGROV1 ovarian
  GI50: 12 µM
  TGI: 25.7 µM
SK-MEL-2 melanoma
  GI50: 14.5 µM
  TGI: 27.7 µM
MDA-MB-231 breast
  GI50: 15.9 µM
  TGI: 29.9 µM
NCI-H23 lung
  GI50: 14.9 µM
  TGI: 28.2 µM
HOP-92 NSCLC
  GI50: 12.7 µM
  TGI: 25.3 µM
OVCAR-3 ovarian
  GI50: 12.7 µM
  TGI: 25.9 µM
MDA-MB-468 breast
  GI50: 11.8 µM
  TGI: 24.1 µM
A549 NSCLC
  GI50: 16.7 µM
  TGI: 31.7 µM
A498 renal
  GI50: 11.8 µM
  TGI: 24.2 µM
UACC-257 melanoma
  GI50: 12.4 µM
  TGI: 24.9 µM
MALME-3M melanoma
  GI50: 12.2 µM
  TGI: 24.6 µM
LOX IMVI melanoma
  GI50: 14 µM
  TGI: 27.1 µM
SF-539 CNS
  GI50: 16.1 µM
  TGI: 29.8 µM

## Cn1c(Nc2ccc(C(F)(F)F)cc2)nc2cc(Oc3ccnc(-c4ncc(C(F)(F)F)[nH]4)c3)ccc21
UO-31 renal
  GI50: 0.332 µM
  TGI: 12.6 µM
SNB-19 CNS
  GI50: 0.359 µM
  TGI: 19.8 µM
NCI-H322M lung
  GI50: 0.106 µM
  TGI: 12.6 µM
SR leukemia
  GI50: 270 nM
  TGI: 2.11 µM
SK-OV-3 ovarian
  GI50: 0.0127 µM
  TGI: 12.5 µM
HCT-15 colon
  GI50: 0.0537 µM
  TGI: 10.3 µM
CCRF-CEM leukemia
  GI50: 0.231 µM
  TGI: 1.17 µM
U251 glioblastoma
  GI50: 0.0979 µM
  TGI: 12.7 µM
HCT-116 colon
  GI50: 0.0625 µM
  TGI: 3.55 µM
RPMI-8226 leukemia
  GI50: 0.232 µM
  TGI: 2.09 µM
EKVX NSCLC
  GI50: 0.983 µM
  TGI: 4.91 µM
SK-MEL-5 melanoma
  GI50: 0.0704 µM
  TGI: 0.617 µM
SN12C renal
  GI50: 0.0464 µM
  TGI: 11.8 µM
ACHN renal
  GI50: 0.0205 µM
  TGI: 11.3 µM
BT-549 breast
  GI50: 0.182 µM
  TGI: 11.3 µM
TK-10 renal
  GI50: 0.0896 µM
  TGI: 11.8 µM
MCF7 breast
  GI50: 1.59 µM
  TGI: 6.67 µM
UACC-62 melanoma
  GI50: 0.027 µM
  TGI: 0.462 µM
K-562 leukemia
  GI50: 0.63 µM
  TGI: 2.13 µM
COLO 205 colon
  GI50: 0.122 µM
  TGI: 1.42 µM
HT29 colon
  GI50: 0.396 µM
  TGI: 13.7 µM
SW-620 colon
  GI50: 0.873 µM
  TGI: 12.5 µM
HOP-62 NSCLC
  GI50: 0.608 µM
  TGI: 11.4 µM
OVCAR-8 ovarian
  GI50: 0.493 µM
  TGI: 10.6 µM
M14 melanoma
  GI50: 0.0184 µM
  TGI: 0.332 µM
MDA-MB-435 melanoma
  GI50: 0.0476 µM
  TGI: 5.88 µM
SF-295 CNS
  GI50: 0.249 µM
  TGI: 5.66 µM
SNB-75 CNS
  GI50: 0.0711 µM
  TGI: 13 µM
OVCAR-4 ovarian
  GI50: 0.454 µM
  TGI: 11.7 µM
DU-145 prostate
  GI50: 0.0352 µM
  TGI: 13.6 µM
SK-MEL-28 melanoma
  GI50: 0.046 µM
  TGI: 0.408 µM
OVCAR-5 ovarian
  GI50: 1.43 µM
  TGI: 13.1 µM
HL-60(TB) leukemia
  GI50: 0.0386 µM
  TGI: 1.07 µM
NCI-H460 NSCLC
  GI50: 0.237 µM
  TGI: 10.3 µM
IGROV1 ovarian
  GI50: 0.041 µM
  TGI: 11.2 µM
SK-MEL-2 melanoma
  GI50: 0.0238 µM
  TGI: 0.101 µM
MDA-MB-231 breast
  GI50: 0.0367 µM
  TGI: 1.8 µM
NCI-H23 lung
  GI50: 0.179 µM
  TGI: 2.33 µM
HOP-92 NSCLC
  GI50: 0.584 µM
  TGI: 6 µM
OVCAR-3 ovarian
  GI50: 0.158 µM
  TGI: 2.46 µM
MDA-MB-468 breast
  GI50: 0.0741 µM
  TGI: 0.825 µM
A549 NSCLC
  GI50: 0.254 µM
  TGI: 12.4 µM
A498 renal
  TGI: 12.9 µM
UACC-257 melanoma
  GI50: 0.137 µM
  TGI: 1.51 µM
MALME-3M melanoma
  GI50: 0.0144 µM
  TGI: 0.0443 µM
LOX IMVI melanoma
  GI50: 0.0547 µM
  TGI: 1.54 µM
SF-539 CNS
  GI50: 0.346 µM
  TGI: 7.74 µM
